The values that follow come from ChEMBL document CHEMBL1201862, “PubChem BioAssay data set” (2004).

Structures are written as SMILES.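 Compound exposure: 48 hours, 5 concentrations, 96-well plates. GI50 marks 50% less growth.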 Active and inactive are the calls of the source. No stated cut-off is given here; in the data, active = GI50 up to about 1.1 µM and inactive = higher. A value given as a limit tells only on which side of the number the result lay.

Among the test systems are NCI-H23; NCI-H460; HCT-15; SK-OV-3; HOP-92; 786-0; T47D; SNB-75; ACHN; TK-10; RXF 393; OVCAR-3; EKVX; CCRF-CEM; MDA-N; U-251; A498; Malme-3M; SNB-19.
What all share (test): NCI anticancer screen, dose series, 48 h

`O=C(O)c1cc(CCc2cc(O)ccc2O)ccc1O`: the GI50 was > 100 µM (inactive) in the experiment with NCI-H23; > 100 µM (inactive) in the experiment on NCI-H460; greater than 100 µM in the experiment with HCT-15; > 100 µM (inactive) with SK-OV-3; > 100 µM (inactive) in the experiment with HOP-92; > 100 µM (inactive) with 786-0. In addition, the GI50 in the experiment on T47D, in the experiment on SNB-75, in the experiment on ACHN, in the experiment with TK-10, in the experiment on RXF 393 and in the experiment on OVCAR-3 was > 100 µM (inactive) in each case. Moreover, the GI50 in the experiment on EKVX is > 100 µM (inactive); in the experiment on CCRF-CEM it was 26.9 µM (inactive); in the experiment on MDA-N, 14 µM (inactive); with U-251, > 100 µM (inactive); in the experiment on A498 it was > 100 µM (inactive); in the experiment with Malme-3M it was > 100 µM (inactive).
Consider `CCCCCCCCCCCCCC(=O)N(CCCCCCCCC)CC(O)C(O)C(OC1OC(CO)C(O)C(O)C1O)C(O)CO` (centres undefined), for which the GI50 with NCI-H23 is 19.7 µM (inactive); in the experiment with NCI-H460, 20.1 µM (inactive); in the experiment with HCT-15, 23.6 µM; with SK-OV-3, 14.7 µM (inactive); in the experiment with HOP-92, 17.3 µM (inactive); with 786-0, 17.1 µM (inactive). For the same compound, the GI50 was 19.1 µM (inactive) with T47D; 19.5 µM (inactive) in the experiment on SNB-75; 15.8 µM (inactive) in the experiment with ACHN; 18.6 µM (inactive) in the experiment with TK-10; 24.3 µM (inactive) in the experiment with RXF 393; 26.6 µM (inactive) in the experiment with OVCAR-3. Besides, the GI50 with EKVX is 18 µM (inactive); in the experiment with CCRF-CEM, 26.2 µM (inactive); in the experiment with SNB-19, 24.5 µM (inactive); in the experiment on MDA-N it was 21.6 µM (inactive); with U-251 it was 22.5 µM (inactive); with A498 it was 21.2 µM (inactive). Also, in the experiment with Malme-3M, the GI50 is 18.3 µM (inactive).
`CCC1(O)CC2CC(=O)OC2C1O` (centres undefined): the GI50 in the experiment on NCI-H23 is > 100 µM (inactive); with NCI-H460 it was > 100 µM (inactive); in the experiment with HCT-15 it was greater than 100 µM; with SK-OV-3, > 100 µM (inactive); in the experiment on HOP-92, > 100 µM (inactive); with 786-0, > 100 µM (inactive). The GI50 in the experiment on T47D, in the experiment with SNB-75, in the experiment with ACHN, in the experiment on TK-10, in the experiment on RXF 393 and with OVCAR-3 was > 100 µM (inactive) in each case. Besides, the GI50 in the experiment on EKVX was > 100 µM (inactive); in the experiment with CCRF-CEM, 0.423 µM (active); with SNB-19, > 100 µM (inactive); in the experiment on MDA-N it was > 100 µM (inactive); in the experiment with U-251, > 100 µM (inactive); in the experiment with A498 it was > 100 µM (inactive). Also, the GI50 in the experiment on Malme-3M is > 100 µM (inactive).
`COc1ccc(/N=C(/SS/C(=N/c2ccc(OC)cc2)c2ccc([N+](=O)[O-])o2)c2ccc([N+](=O)[O-])o2)cc1`: the GI50 in the experiment with NCI-H23 is 1.45 µM (inactive); in the experiment on NCI-H460, 0.982 µM (active); with HCT-15, 0.489 µM; with SK-OV-3, 2.79 µM (inactive); with HOP-92, 3.53 µM (inactive); in the experiment with 786-0, 0.719 µM (active). The GI50 was 1.61 µM (inactive) with T47D; 1.27 µM (inactive) in the experiment with SNB-75; 1.41 µM (inactive) in the experiment with ACHN; 2.38 µM (inactive) with TK-10; 0.695 µM (active) in the experiment with RXF 393; 0.624 µM (active) in the experiment on OVCAR-3. The GI50 is 1.52 µM (inactive) in the experiment with EKVX; 2.08 µM (inactive) in the experiment with CCRF-CEM; 1.38 µM (inactive) with SNB-19; 2.07 µM (inactive) in the experiment with MDA-N; 0.35 µM (active) in the experiment on U-251; 12.4 µM (inactive) in the experiment with A498. Moreover, the GI50 in the experiment with Malme-3M is 2.02 µM (inactive).
Regarding `C/C(=C\c1ccccc1)C(=O)NCc1ccc(C(=O)NCCC(C)C)cc1`, the GI50 in the experiment with NCI-H23 is 88.3 µM (inactive); in the experiment on NCI-H460 it was > 100 µM (inactive); with HCT-15, greater than 100 µM; in the experiment on SK-OV-3 it was 25.2 µM (inactive); with HOP-92, 49.5 µM (inactive); with 786-0 it was 38.3 µM (inactive). The GI50 is > 100 µM (inactive) in the experiment with T47D; 21.9 µM (inactive) with SNB-75; 55.6 µM (inactive) with ACHN; > 100 µM (inactive) in the experiment with TK-10; 20.8 µM (inactive) with RXF 393; > 100 µM (inactive) with OVCAR-3. Besides, the GI50 in the experiment with EKVX is 76.4 µM (inactive); in the experiment with CCRF-CEM, > 100 µM (inactive); in the experiment with SNB-19, 36.1 µM (inactive); in the experiment on MDA-N, > 100 µM (inactive); with U-251, 86.7 µM (inactive); in the experiment with A498 it was 27 µM (inactive). For the same compound, in the experiment on Malme-3M, the GI50 is > 100 µM (inactive).
As for `Cc1c2c(c(C)n1-c1ccccc1)C(=O)N(CCCCN1CCN(c3ccccc3)CC1)C2=O`, the GI50 in the experiment on NCI-H23 is 6.73 µM (inactive); in the experiment on NCI-H460, 11.7 µM (inactive); with HCT-15, 7.74 µM; with SK-OV-3, 27.4 µM (inactive); in the experiment on HOP-92, 8.17 µM (inactive); with 786-0 it was 4.97 µM (inactive). The GI50 in the experiment with T47D was 3.49 µM (inactive); in the experiment on SNB-75, 6.89 µM (inactive); in the experiment on ACHN it was 23.1 µM (inactive); in the experiment with TK-10, 30.2 µM (inactive); in the experiment with RXF 393 it was 14.5 µM (inactive); with OVCAR-3, 8.95 µM (inactive). Moreover, the GI50 is 10 µM (inactive) in the experiment with EKVX; 7.21 µM (inactive) with CCRF-CEM; 29 µM (inactive) with SNB-19; 9.57 µM (inactive) with MDA-N; 14.5 µM (inactive) in the experiment on U-251; 26.1 µM (inactive) with A498. Besides, in the experiment on Malme-3M, the GI50 is 4.03 µM (inactive).
Take `COc1ccc2nc3ccc(OC)cc3c(SCc3ccc([N+](=O)[O-])cc3)c2c1`: the GI50 was 50 µM (inactive) in the experiment on NCI-H23; > 100 µM (inactive) in the experiment on NCI-H460; greater than 100 µM in the experiment on HCT-15; > 100 µM (inactive) with SK-OV-3; > 100 µM (inactive) in the experiment with HOP-92; 24.7 µM (inactive) in the experiment on 786-0. The GI50 with T47D was > 100 µM (inactive); in the experiment on SNB-75, 37.1 µM (inactive); with ACHN, 79.1 µM (inactive); with TK-10, 34 µM (inactive); in the experiment on RXF 393, > 100 µM (inactive); with OVCAR-3 it was 63 µM (inactive). The GI50 in the experiment on EKVX was > 100 µM (inactive); in the experiment with CCRF-CEM it was > 100 µM (inactive); with SNB-19, > 100 µM (inactive); with MDA-N, > 100 µM (inactive); in the experiment with U-251, > 10 µM (inactive); in the experiment with A498 it was > 100 µM (inactive). The GI50 in the experiment on Malme-3M was > 100 µM (inactive).
Regarding `CC(=C/C=C/C=C(C)\C=C\C=C(\C)C(=O)O)/C=C/C=C(/C)C(=O)O`, the GI50 in the experiment with NCI-H23 is > 100 µM (inactive); with NCI-H460, > 100 µM (inactive); in the experiment with HCT-15 it was greater than 100 µM; with SK-OV-3, > 100 µM (inactive); in the experiment on HOP-92 it was > 100 µM (inactive); in the experiment on 786-0, > 100 µM (inactive). Also, the GI50 in the experiment with T47D, in the experiment on SNB-75, with ACHN, in the experiment with TK-10, with RXF 393 and in the experiment with OVCAR-3 was > 100 µM (inactive) throughout. Moreover, the GI50 in the experiment on CCRF-CEM, with MDA-N, in the experiment on U-251, with A498 and in the experiment on Malme-3M was > 100 µM (inactive) in each case.
